# Patent publication US20060240083A1, “ANTIMICROBIAL AND IMMUNOSTIMULATING COMPOSITION” (BRENNEN MEDICAL, LLC, priority 2000, published 2006)
# Test system: bacteria
# Assay: Zone-of-inhibition test, overall outcome in words
# Format: cell-based
# Experimental: A standard zone-of-inhibition study was performed on the lotion and wound dressing exemplars described above. The zone-of-inhibition test involved placing a quantity of the prepared lotion or wound dressing in a petri dish, which had been cultured with a particular bacterium. The bacteria used in this test included: B. subtilis, B. vulgatus, C. albicans, E. coli, P. aeruginosa, and S. aureus. In each of these tests, the diameter of the prepared lotion or wound dressing placed in the cultured petri dishes was measured and recorded at the outset of the test. On the first, second, and fifth days thereafter the diameter of the zone of inhibition was measured and recorded. The zone of inhibition in this test was defined as the area surrounding the prepared lotion or wound dressing on the petri dish which was uninhabited by the bacteria of the specific culture. Table 1 reports data for the prepared lotion zone-of-inhibition test and Table 2 reports data for the prepared wound dressing zone-of-inhibition test.
# Similar results are observed for a zone-of-inhibition test when a yeast-derived β-glucan is used in a medical composition as described herein.
substance,measurement,setting,value
β-glucan,antimicrobial effect in the zone-of-inhibition test (in words),overall outcome of the zone-of-inhibition tests,no inhibition of bacteria
same,effect on bacterial growth (in words),β-glucan as a microbial nutrient,promotes bacterial growth
